# Assay results reported in ChEMBL document CHEMBL2029209, “Structure-based design of 2,6,7-trisubstituted-7H-pyrrolo[2,3-d]pyrimidines as Aurora kinases inhibitors” (Bioorg Med Chem Lett, 2012).
# Legend:
# Aurora kinase A = target: T1, Aurora kinase A (Homo sapiens, UniProt O14965); experiment: Inhibition of aurora A kinase
# T1 sequence (O14965 whole entry): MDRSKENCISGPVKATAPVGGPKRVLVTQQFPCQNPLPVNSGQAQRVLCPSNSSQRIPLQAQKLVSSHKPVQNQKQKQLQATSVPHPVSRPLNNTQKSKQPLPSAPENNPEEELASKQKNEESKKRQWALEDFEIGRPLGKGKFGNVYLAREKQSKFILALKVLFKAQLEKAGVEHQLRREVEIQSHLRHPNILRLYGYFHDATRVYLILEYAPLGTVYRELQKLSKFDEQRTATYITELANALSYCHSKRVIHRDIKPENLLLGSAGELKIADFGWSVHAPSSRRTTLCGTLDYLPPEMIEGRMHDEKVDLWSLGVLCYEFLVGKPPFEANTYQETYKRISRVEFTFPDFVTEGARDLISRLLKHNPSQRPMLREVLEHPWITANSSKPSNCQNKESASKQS
# Aurora kinase B = Aurora kinase B (Homo sapiens, UniProt Q96GD4); experiment: Inhibition of aurora B kinase
# Chain of Aurora kinase B (Q96GD4 whole entry): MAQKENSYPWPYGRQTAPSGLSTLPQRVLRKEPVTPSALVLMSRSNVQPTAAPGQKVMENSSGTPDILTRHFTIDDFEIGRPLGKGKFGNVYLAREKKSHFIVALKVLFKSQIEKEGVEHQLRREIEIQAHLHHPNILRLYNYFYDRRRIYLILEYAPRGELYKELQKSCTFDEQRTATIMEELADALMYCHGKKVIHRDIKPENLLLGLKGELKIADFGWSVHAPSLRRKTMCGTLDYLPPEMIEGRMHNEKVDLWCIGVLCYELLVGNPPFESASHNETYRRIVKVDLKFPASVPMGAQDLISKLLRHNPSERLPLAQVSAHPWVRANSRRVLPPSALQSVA
# [1] = target: Cyclin-dependent kinase 1 (Homo sapiens, UniProt P06493); experiment: Inhibition of CDK1
# Chain of Cyclin-dependent kinase 1 (P06493 whole entry): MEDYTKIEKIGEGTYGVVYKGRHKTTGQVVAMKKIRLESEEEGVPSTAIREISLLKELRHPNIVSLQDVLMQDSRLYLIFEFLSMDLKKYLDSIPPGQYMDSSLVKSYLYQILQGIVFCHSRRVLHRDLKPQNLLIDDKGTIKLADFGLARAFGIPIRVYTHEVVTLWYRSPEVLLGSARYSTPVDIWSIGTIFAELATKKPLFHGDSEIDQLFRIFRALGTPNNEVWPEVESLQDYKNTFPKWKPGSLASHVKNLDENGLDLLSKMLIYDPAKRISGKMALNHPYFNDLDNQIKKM
# HCT-116 [2] = experiment: Induction of cell cycle arrest in human HCT116 cells assessed as minimum concentration required for G2/M versus G1 peak ratio over 2; format: functional
# HCT-116 [3] = experiment: Antiproliferative activity against human HCT116 cells; format: functional, cell-based
Compound,IC50 (Aurora kinase A),IC50 (Aurora kinase B),IC50 [1],Activity (HCT-116 [2]),IC50 (HCT-116 [3])
CN1CCN(C(=O)c2cc(Nc3ncc4cc(-c5cnco5)n(C5CCCC5)c4n3)cn2C)CC1,2 nM,4 nM,28 nM,0.03 µM,60 nM
CN1CCN(C(=O)c2cc(Nc3ncc4cc(C(=O)O)n(C5CCCC5)c4n3)cn2C)CC1,350 nM,1000 nM,10000 nM,10 µM,12300 nM
CN1CCN(C(=O)c2cc(Nc3ncc4cc(C#N)n(C5CCCC5)c4n3)cn2C)CC1,7.5 nM,4 nM,6 nM,0.065 µM,40 nM
CN1CCN(C(=O)c2cc(Nc3ncc4cc(-c5cnn(C)c5)n(C5CCCC5)c4n3)cn2C)CC1,2 nM,4 nM,180 nM,0.03 µM,–
CN1CCN(C(=O)c2cc(Nc3ncc4cc(CO)n(C5CCCC5)c4n3)cn2C)CC1,20 nM,40 nM,1300 nM,0.1 µM,130 nM
CN1CCN(C(=O)c2cc(Nc3ncc4cc(C(N)=O)n(C5CCCC5)c4n3)cn2C)CC1,–,11 nM,500 nM,0.1 µM,70 nM
CN1CCN(C(=O)c2cc(Nc3ncc4cc(-c5ccnn5C)n(C5CCCC5)c4n3)cn2C)CC1,–,4 nM,1700 nM,1 µM,590 nM
CN1CCN(C(=O)c2cc(Nc3ncc4cc(-c5cncn5C)n(C5CCCC5)c4n3)cn2C)CC1,2 nM,5 nM,200 nM,0.003 µM,5 nM
CN1CCN(C(=O)c2cc(Nc3ncc4cc(/C=N/O)n(C5CCCC5)c4n3)cn2C)CC1,11 nM,30 nM,3 nM,0.002 µM,4 nM
CNCc1cc2cnc(Nc3cc(C(=O)N4CCN(C)CC4)n(C)c3)nc2n1C1CCCC1,40 nM,60 nM,700 nM,0.3 µM,210 nM
CC(O)c1cc2cnc(Nc3cc(C(=O)N4CCN(C)CC4)n(C)c3)nc2n1C1CCCC1 (configuration not stated),11 nM,30 nM,1100 nM,0.1 µM,80 nM
Cc1c(-c2cc3cnc(Nc4cc(C(=O)N5CCN(C)CC5)n(C)c4)nc3n2C2CCCC2)cnn1C,2 nM,4 nM,330 nM,0.03 µM,110 nM
CC(C)CCn1cc(-c2cc3cnc(Nc4cc(C(=O)N5CCN(C)CC5)n(C)c4)nc3n2C2CCCC2)cn1,2 nM,4 nM,1400 nM,0.1 µM,110 nM
CN1CCN(C(=O)c2cc(Nc3ncc4ccn(C5CCCC5)c4n3)cn2C)CC1,38 nM,18 nM,240 nM,0.3 µM,290 nM
CN1CCN(C(=O)c2cc(Nc3ncc4cc(-c5cnn(Cc6ccccc6)c5)n(C5CCCC5)c4n3)cn2C)CC1,2 nM,4 nM,2000 nM,0.1 µM,90 nM
